Measurements reported in publication PMC7601231 (Polymers, 2020).

Columns and labels:
[1] = Pharmacokinetic study in rats after injection; type: in vivo, Sprague–Dawley rats; conditions: 10 mg/kg, n = 12
Protocol: Blood samples (0.5 mL) were taken from the retinal vein of the rats using a capillary and at the following time points after injecting: 5, 10, 15, 30 min, 1, 2, 4, 6, 8, 10 and 12 h. The sample should be transferred to the heparin sodium tube for anticoagulation. The samples were centrifuged at 4000 rpm for 10 min. The resultant plasma was poured into 2-mL cryogenic plastic tubes and stored in a freezer (at […]) until assayed. A week later, the two groups of animals exchanged the drug and obtained plasma samples, which were stored in the −20-degree refrigerator for analysis. The sample was extracted in the following steps: the plasma ([…]) was mixed with […] of paclitaxel solution (4.0 mg/mL) as […], and 1.0 mL methyl tert-butyl ether in a 2-mL plastic centrifuge tube, centrifuged at 10,000 rpm for 5 min to precipitate the proteins and the supernatant layer (0.8 mL) was blown dry by N2 and is dissolved by 0.1 mL methanol, which was centrifuged at 10,000 rpm for 10 min. The supernatant layer ([…]) was analyzed by LC-MS (Waters, American).
The plasma concentration versus time curves of the two preparations were plotted. The pharmacokinetic parameters such as elimination rate (Ke) and elimination half-life (T1/2) were calculated by using DAS2.0 software. The maximum peak concentration (Cmax) and the corresponding sampling time (Tmax) were obtained from the curves directly. The areas under the plasma concentration–time curve from time zero to time t (AUC0–t) and from time zero to infinity (AUC0-∞) were calculated by the method of moments. Statistical comparisons were made by using a ANOVA test and p value smaller than 0.05 was considered statistically significant.

[2] = Biodistribution study in rats; type: in vivo; conditions: 10 mg/kg, 10, 60 and 360 min after administration
[3] = Vascular stimulation test, ear vein injection; type: in vivo, New Zealand white rabbits; conditions: rabbit ear vein, 0.7 mg/kg, every day, three injections
Protocol: Preparations were administered every day for a total of three injections. At designed time points, rabbits were anesthetized and ear tissue was soaked with 10% formalin. Then the histopathologic examination was conducted.

[4] = Phase-solubility studies of DTX in SBE-β-CD aqueous solution; type: physicochemical; conditions: 25 °C
Protocol: In this study, the stability constant was assessed by classic determination method using solubility diagrams that required calculations involving drug solubility. […] Then the resulting suspensions were shaken in a thermostatic air-bath shaker at 25 °C for 48 h until equilibrium was achieved. After that, the saturated supernatant fluid was centrifuged for 5 min under 5000 rpm, and then the top fluid was withdrawn and filtered through a 0.45-μm filter. The filtrate was diluted appropriately with deionized water and analyzed by HPLC as reported above.

AUC(0-t) [1]: 881.4 ± 30.4 ng/mL ∗ h | AUC(0-∞) [1]: 925.8 ± 35.2 ng/mL ∗ h | Cmax ([1]; male, Sprague-Dawley, rat, plasma, other: injection): 1100 ± 98 ng/mL | concentration of DTX in brain, fat and testis [2]: low | increase of water solubility of DTX over its original values [4]: about 800 times
Compound: CC(=O)O[C@@]12CO[C@@H]1C[C@H](O)[C@@]1(C)C(=O)[C@H](O)C3=C(C)[C@@H](OC(=O)[C@H](O)[C@@H](NC(=O)OC(C)(C)C)c4ccccc4)C[C@@](O)([C@@H](OC(=O)c4ccccc4)[C@H]21)C3(C)C [DTX, Docetaxel]
vascular stimulation: reaction at the injection site (histopathology) [3]: serious vascular inflammation and surrounding tissue lesions
